According to patent US8507235B2, “Isoprene production using the DXP and MVA pathway” (Danisco US Inc., priority 2009, dated 2013):
Where “and” joins values, the source holds several entries; their conditions need not be identical. Equal values may be shown once. Read-outs that look alike come from different tables or passages of the source.

Columns and labels:
E. coli strain MCM597 [1] = test: Carbon sources affecting isoprene production during growth on glucose (Biolog PM1 and PM2A plates); type: cell-based; settings: 0.5% glucose, 0.2% yeast extract; normalized to control only fed glucose; p<0.1
E. coli strain MCM597 [2] = test: Carbon sources useful for the production of isoprene (Biolog PM1 plate); type: cell-based; settings: 0.2% yeast extract, compound as carbon source; normalized to α-D-glucose
Dxr from E. coli = target: T1, Dxr from E. coli (Escherichia coli, UniProt P45568); test: Dxr inactivation by incubation with DMAPP and HDMAPP; type: biochemical; settings: purified Dxr from E. coli
T1 construct: His tag (pET15b) (N); made in house; host or cells: E. coli BL21(λDE3)
T1 sequence (P45568 whole entry): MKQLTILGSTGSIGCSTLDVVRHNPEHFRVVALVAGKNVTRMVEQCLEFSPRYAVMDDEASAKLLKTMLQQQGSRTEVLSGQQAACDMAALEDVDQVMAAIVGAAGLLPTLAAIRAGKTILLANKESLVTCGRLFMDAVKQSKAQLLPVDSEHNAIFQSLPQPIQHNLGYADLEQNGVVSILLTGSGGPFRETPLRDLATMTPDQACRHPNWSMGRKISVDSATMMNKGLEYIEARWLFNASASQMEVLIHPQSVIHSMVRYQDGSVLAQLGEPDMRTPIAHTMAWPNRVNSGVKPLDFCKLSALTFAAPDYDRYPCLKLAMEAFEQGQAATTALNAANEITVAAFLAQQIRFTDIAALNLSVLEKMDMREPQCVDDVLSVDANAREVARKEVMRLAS
Experimental: The purified protein, 5 uM, was incubated at several concentration of DMAPP or HMBPP (Echelon Bioscience, Salt Lake City, Utah) in buffer consisting of 100 mM Tris, 100 mM NaCl pH 8, 5 mM MgCl2, 0.2 mM NADPH, 0.2 mM DXP, and 250 nM DXR. D at 37° C. for two hour in a total volume of 50 uL. Dxr activity was measured periodically according to standard assay, see, e.g., Koppisch et al, Biochemistry, 41:236-43 (2002) with a 20-fold dilution of the inactivation reaction mixture. […] Where appropriate additional control activity assays were conducted in the presence of a 20-fold diluted concentration of inactivators (DMAPP or HMBPP).

E. coli strain MCM597 [3] = test: Nitrogen sources affecting isoprene production (Biolog PM3B plates); type: cell-based; settings: 0.5% glucose as sole carbon source, no yeast extract; p<0.1
[4] = about 1 atmosphere and about 60° F.; cited from earlier work
REM A2—17 strain [5] = test: Accumulation of DXP and MVA pathway metabolites in REM A2—17 with and without fosmidomycin (LC-MS/MS); type: cell-based, E. coli; settings: 2 mM fosmidomycin, 45 min. incubation
REM A2—17 strain [6] = test: Specific productivity of isoprene of strain REM A2—17 in the presence and absence of fosmidomycin (headspace assay); type: cell-based, E. coli; settings: 2 mM fosmidomycin; for activity at 2000 µM: Escherichia coli, 0.75 h, read-out: fraction of isoprene produced during exposure to fosmidomycin relative to absence of the inhibitor (MVA-flux)
[7] = system: dxr null E. coli BL21 strain; type: cell-based
[8] = system: E. coli BL21 strain harboring the GI1.6-dxr locus; test: Isoprene production with fosmidomycin in the growth media, GI1.6-dxr strain; type: cell-based; settings: 1 mM fosmidomycin in the growth media
[9] = Flammability limits of isoprene (computer simulation and experimental testing); type: physicochemical
Source text: Thus, computer modeling and experimental testing were used to determine the flammability limits of isoprene (such as isoprene in the presence of O2, N2, CO2, or any combination of two or more of the foregoing gases) in order to ensure process safety. The flammability envelope is characterized by the lower flammability limit (LFL), the upper flammability limit (UFL), the limiting oxygen concentration (LOC), and the limiting temperature. For a system to be flammable, a minimum amount of fuel (such as isoprene) must be in the presence of a minimum amount of oxidant, typically oxygen. The LFL is the minimum amount of isoprene that must be present to sustain burning, while the UFL is the maximum amount of isoprene that can be present. Above this limit, the mixture is fuel rich and the fraction of oxygen is too low to have a flammable mixture. The LOC indicates the minimum fraction of oxygen that must also be present to have a flammable mixture. The limiting temperature is based on the flash point of isoprene and is that lowest temperature at which combustion of isoprene can propagate. These limits are specific to the concentration of isoprene, type and concentration of oxidant, inerts present in the system, temperature, and pressure of the system. […]

[10] = system: strains REM H8—12 and REM I7—11; type: cell-based, E. coli
[11] = approx. 45 minutes, unlabeled culture without tryptophan (FIG. 98)

Structure (SMILES)	specific productivity of isoprene (E. coli strain MCM597 [1])	specific isoprene production (E. coli strain MCM597 [3])	further results
CC(O)C(C)O (stereo not drawn) [2,3-butanediol]	increasing	–	–
NCCO [2-aminoethanol]	increasing	–	–
OC[C@H]1O[C@@H](O[C@H]2[C@H](O)[C@@H](O)[C@H](O)O[C@@H]2CO)[C@H](O)[C@@H](O)[C@@H]1O [D-cellobiose]	increasing	–	–
O=C(CO)[C@@H](O)[C@H](O)[C@H](O)CO [D-fructose]	–	–	specific productivity of isoprene (E. coli strain MCM597 [2]): increasing
O=C[C@H](O)[C@@H](O)[C@@H](O)[C@H](O)C(=O)O [D-galacturonic acid]	increasing	–	specific productivity of isoprene (E. coli strain MCM597 [2]): increasing
O=C(O)[C@H](O)[C@@H](O)[C@H](O)[C@H](O)CO [D-gluconic acid]	increasing	–	–
N[C@@H](C(=O)O)[C@@H](O)[C@H](O)[C@H](O)CO [D-glucosaminic acid]	increasing	–	–
O=C[C@H](O)[C@@H](O)[C@H](O)[C@H](O)COP(=O)(O)O [D-glucose-6-phosphate]	–	–	specific productivity of isoprene (E. coli strain MCM597 [2]): increasing
OC[C@@H](O)[C@@H](O)[C@H](O)[C@H](O)CO [D-mannitol]	–	–	specific productivity of isoprene (E. coli strain MCM597 [2]): increasing
O=C[C@@H](O)[C@@H](O)[C@H](O)[C@H](O)CO [D-mannose]	increasing	–	–
O=C(CO)[C@H](O)[C@H](O)[C@H](O)CO [D-psicose]	increasing	–	–
OC[C@H]1O[C@H](O[C@H]2O[C@H](CO)[C@@H](O)[C@H](O)[C@H]2O)[C@H](O)[C@@H](O)[C@@H]1O [D-trehalose]	–	–	specific productivity of isoprene (E. coli strain MCM597 [2]): increasing
C/C(=C\COP(=O)(O)OP(=O)(O)O)CO [HMBPP, 1-hydroxy-2-methyl-2-(E)-butenyl 4-diphosphate]	–	–	Dxr activity after incubation with the compound (Dxr from E. coli): inactivated
NC(=O)C[C@H](N)C(=O)O [L-asparagine]	–	increasing	–
N[C@@H](CC(=O)O)C(=O)O [L-aspartic acid]	–	increasing	–
O=C1O[C@H]([C@@H](O)CO)[C@@H](O)[C@@H]1O [L-galactonic acid-γ-lactone]	increasing	–	–
N[C@@H](CCC(=O)O)C(=O)O [L-glutamic acid]	–	increasing	–
O=C(O)C[C@H](O)C(=O)O [L-malic acid]	increasing	–	–
CSCC[C@H](N)C(=O)O [L-methionine]	–	negatively affecting	–
N[C@@H](Cc1ccccc1)C(=O)O [L-phenylalanine]	increasing	–	–
N[C@@H](CO)C(=O)O [L-serine]	–	increasing	–

Structure (SMILES)	specific productivity of isoprene (E. coli strain MCM597 [1])	specific isoprene production (E. coli strain MCM597 [3])	further results
C[C@@H](O)[C@H](N)C(=O)O [L-threonine]	–	increasing	–
N[C@@H](Cc1c[nH]c2ccccc12)C(=O)O [L-tryptophan]	–	increasing	–
N[C@@H](Cc1ccc(O)cc1)C(=O)O [L-tyrosine]	–	negatively affecting	–
CC(=O)N[C@H]1C(O)O[C@H](CO)[C@@H](O)[C@@H]1O (stereo partly drawn) [N-acetyl-D-glucosamine]	–	–	specific productivity of isoprene (E. coli strain MCM597 [2]): increasing
Nc1ncnc2nc[nH]c12 [adenine]	–	negatively affecting	–
N [ammonia]	–	did not significantly change	–
CCO [ethanol]	–	–	limiting oxygen concentration (LOC) [4]: about 8.7 vol %; lower flammability limit (LFL) [4]: about 3.3 vol %
O=CN(O)CCCP(=O)(O)O [fosmidomycin]	–	–	DXP concentration (REM A2—17 strain [5]): significant increase; HDMAPP concentration (REM A2—17 strain [5]): decrease; concentration of MEP, CDP-ME and cMEPP (REM A2—17 strain [5]): drop; concentration of MVA (REM A2—17 strain [5]): did not change; decrease of the cumulative amount of IPP and DMAPP (REM A2—17 strain [5]): 55%; decrease in isoprene production with fosmidomycin (DXP-flux) (REM A2—17 strain [6]; 1-13C glucose culture with 50 uM tryptophan (FIG. 98)): 51%; decrease in isoprene production with fosmidomycin (DXP-flux) (REM A2—17 strain [6]; 1-13C glucose culture without tryptophan): 42% and 43%; decrease in isoprene production with fosmidomycin (DXP pathway contribution) (REM A2—17 strain [6]; 3-13C glucose): 43% and ~42%; decrease in isoprene production with fosmidomycin (DXP pathway contribution) (REM A2—17 strain [6]; [11]): ~48%; fraction of isoprene produced during exposure to fosmidomycin relative to absence of the inhibitor (MVA pathway contribution) (REM A2—17 strain [6]; [11]): roughly 52%; fraction of isoprene produced during exposure to fosmidomycin relative to absence of the inhibitor (MVA pathway contribution) (REM A2—17 strain [6]; approx. 45 minutes, unlabeled glucose (FIG. 96)): roughly 59%; decrease in isoprene production with fosmidomycin (DXP pathway contribution) (REM A2—17 strain [6]; approx. 45 minutes, unlabeled glucose (FIG. 96, 97)): 41%; fraction of isoprene produced during exposure to fosmidomycin relative to absence of the inhibitor (MVA pathway contribution) (REM A2—17 strain [6]; approx. 1 hour, 3-13C glucose (FIG. 99)): roughly 58%; activity at 2000 µM (REM A2—17 strain [6]; approx. 45 minutes, 1-13C glucose culture with 50 uM tryptophan (FIG. 98)): 49%; activity at 2000 µM (REM A2—17 strain [6]; approx. 45 minutes, 1-13C glucose culture without tryptophan (FIG. 98)): 57%; isoprene production [7]: same level of isoprene production; isoprene production [8]: undetectable level
NC(=O)[C@@H](O)[C@@H](O)[C@H](O)[C@@H](O)C=O [glucuronamide]	increasing	–	–
Nc1nc2c(ncn2[C@@H]2O[C@H](CO)[C@@H](O)[C@H]2O)c(=O)[nH]1 [guanosine]	–	increasing	–
OC[C@H]1O[C@@H](n2cnc3c(O)ncnc32)[C@H](O)[C@@H]1O [inosine]	increasing	increasing	–
C=CC(=C)C [isoprene, 2-methyl-1,3-butadiene]	–	–	limiting temperature [9]: about −54 °C; limiting oxygen concentration (LOC) ([9]; isoprene, O2, N2, and CO2 mixture at 40° C. and 1 atmosphere): 9.5 vol %
C[C@@](O)(CCO)CC(=O)O [mevalonic acid, (R)-mevalonic acid]	–	–	isoprene specific productivity from mevalonate (m/z of 67) [10]: increased with increasing mevalonic acid concentration; specific productivity of isoprene from [U-13C]-glucose (m/z of 73) [10]: the same
O=C(O)[C@@H](O)[C@H](O)[C@H](O)[C@@H](O)C(=O)O [mucic acid]	increasing	–	–
O=[N+]([O-])O [nitrate]	–	did not significantly change	–
O=NO [nitrite]	–	did not significantly change	–
NCCc1ccccc1 [phenylethylamine]	increasing	–	–
CCC(=O)O [propionic acid]	increasing	–	–
OC[C@H]1O[C@@](CO)(O[C@H]2O[C@H](CO)[C@@H](O)[C@H](O)[C@H]2O)[C@@H](O)[C@@H]1O [sucrose]	increasing	–	–
NC(N)=O [urea]	–	did not significantly change	–
OC[C@H]1O[C@H](O)[C@H](O)[C@@H](O)[C@@H]1O [α-D-glucose]	–	–	specific productivity of isoprene (E. coli strain MCM597 [2]): increasing
